In patent US12337003B2, “Pharmaceutical compositions for combination therapy” (Intercept Pharmaceuticals, Inc., priority 2015, dated 2025):

What was measured:
[1] = system: patients with non-cirrhotic, non-alcoholic steatohepatitis; assay: Randomized placebo-controlled clinical trial in non-alcoholic steatohepatitis; format: in vivo, humans; details: at 24 weeks; 25 mg daily orally vs placebo; 95% CI −45 to −3
Method: A multicenter, double-blind, placebo-controlled, parallel group, randomized clinical trial was conducted in patients with non-cirrhotic, non-alcoholic steatohepatitis to assess treatment with obeticholic acid given orally (25 mg daily) or placebo for 72 weeks. Patients were randomly assigned 1:1 using a computer-generated, centrally administered procedure, stratified by clinical center and diabetes status. The primary outcome measure was improvement in centrally scored liver histology defined as a decrease in non-alcoholic fatty liver disease activity score by at least 2 points without worsening of fibrosis from baseline to the end of treatment. Change in alanine aminotransferase at 24 weeks was measured: relative change in alanine aminotransferase −24%, 95% CI −45 to −3.
Patients were enrolled in the study according to the following inclusion criteria: 18 years or older at the time of screening, histological evidence of definite or borderline non-alcoholic steatohepatitis based upon a liver biopsy obtained 90 days or less before randomization, and a histological non-alcoholic fatty liver disease (NAFLD) activity score of 4 or more with a score of 1 or more in each component of the score (steatosis scored 0-3, ballooning 0-2, and lobular inflammation 0-3). Grading and staging of biopsies for the purposes of enrollment were carried out at the site of enrollment. […]

[2] = system: intestinal tissue of two animal models of inflammatory bowel disease (DSS and trinitrobenzene sulfonic acid); details: DSS and trinitrobenzene sulfonic acid models (Gadaleta 2011); cited from earlier work

CC[C@H]1[C@@H](O)[C@@H]2[C@H](CC[C@]3(C)[C@@H]([C@H](C)CCC(=O)O)CC[C@@H]23)[C@@]2(C)CC[C@@H](O)C[C@@H]12 [OCA, 3α,7α-dihydroxy-6α-ethyl-5β-cholan-24-oic acid]
relative change in alanine aminotransferase [1]: −24% | inflammatory infiltrates in intestinal tissue [2]: inhibition of inflammatory infiltrates
